Where two headings read alike, the source gives them in different places.
Columns and labels:
Type in all cases: cell-based
[1] = system: HTT mRNA; assay: Splicing RT-qPCR assay (THP), Table 2A
[2] = system: HTT mRNA; assay: Gene panel canonical junction qPCR assay, decrease in CJ mRNA, Table 3
Procedure, shortened: (§1)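 A673 (DMEM, 10% FBS, 15,000 cells/well) or K562 (IMDM, 10% FBS) cells treated 24 h at 37 °C with 11-point 3-fold dilutions, top 10 uM, DMSO ≤0.25%. Canonical exon-exon junction mRNA measured by RT-qPCR, normalized to GAPDH, GUSB or PPIA and DMSO (ΔΔCt); IC50 from 4-parameter logistic fit.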

[3] = system: MYB mRNA; assay: as above
Procedure, shortened: as §1

[4] = system: SH-SY5Y (human neuroblastoma) cells; assay: Cell viability, Cell Titer Glo 2.0 assay; conditions: read-out: Viability SHSY5Y.3 GI50
Procedure, shortened: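 Toxicity screen in SH-SY5Y cells. Compounds were serially diluted in DMSO and then in medium, giving 0.1% DMSO final. Viability was read with CellTiter-Glo 2.0 after 72 h at 37 °C, 5% CO2, against medium-only blank wells.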

[5] = system: MYB mRNA; assay: Splicing RT-qPCR assay (THP), Table 2A
[6] = Table 2A (THP), AJ mRNA increase, read-out: HTT AJ (increase in alternative junction mRNA, AC50)
[7] = Table 2A (THP), CJ mRNA decrease, read-out: HTT CJ (decrease in canonical junction mRNA, IC50)
[8] = decrease in canonical junction (CJ) mRNA, gene panel qPCR, Table 3
[9] = Table 2A (THP), AJ mRNA increase, read-out: MYB AJ (increase in alternative junction mRNA, AC50)
[10] = Table 2A (THP), CJ mRNA decrease, read-out: MYB CJ (decrease in canonical junction mRNA, IC50)
[11] = Table 2A, THP, HTT alternative junction (AJ) mRNA, read-out: HTT AJ (AC50, increase in alternative junction mRNA)
[12] = Table 2A, THP, HTT canonical junction (CJ) mRNA, read-out: HTT CJ (IC50, decrease in canonical junction mRNA)
[13] = decrease in CJ mRNA levels, canonical junction qPCR, gene panel
[14] = Table 2A, THP, MYB alternative junction (AJ) mRNA, read-out: MYB AJ (AC50, increase in alternative junction mRNA)
[15] = Table 2A, THP, MYB canonical junction (CJ) mRNA, read-out: MYB CJ (IC50, decrease in canonical junction mRNA)

SMILES | IC50 [1, 7] | IC50 [2, 8] | IC50 [3, 8] | GI50 [4] | IC50 [5, 10] | IC50 [1, 12] | IC50 [2, 13] | IC50 [3, 13] | IC50 [5, 15] | AC50 [1, 6] | AC50 [5, 9] | AC50 [1, 11] | AC50 [5, 14]
CCNC1(C)CCN(c2cc(F)c(C(=O)Nc3cn4cc(C)nc(C)c4n3)c3nn(C)cc23)CC1 [Compound 375, N-(6,8-dimethylimidazo[1,2-a]pyrazin-2-yl)-4-[4-(ethylamino)-4-methyl-1-piperidyl]-6-fluoro-2-methyl-indazole-7-carboxamide] | 1000 to 10000 nM | 1000 to 10000 nM | < 100 nM | 100 to 1000 nM | < 100 nM | – | – | – | – | 1000 to 10000 nM | < 100 nM | – | –
CCNC1CCN(c2ccc(C(=O)Nc3cc(Oc4ccccn4)c4nc(C)cn4c3)c3nn(C)cc23)CC1 [Compound 365, 4-[4-(ethylamino)-1-piperidyl]-2-methyl-N-[2-methyl-8-(2-pyridyloxy)-imidazo[1,2-a]pyridin-6-yl]indazole-7-carboxamide] | > 10000 nM | > 10000 nM | 1000 to 10000 nM | > 10000 nM | 1000 to 10000 nM | – | – | – | – | > 10000 nM | 1000 to 10000 nM | – | –
COc1cc2nn(C)cc2cc1NC(=O)c1ccc(N2C[C@H](C)N[C@@H](C)C2)c2cn(C)nc12 [Compound 553] | 1000 to 10000 nM | 1000 to 10000 nM | 100 to 1000 nM | 1000 to 10000 nM | 100 to 1000 nM | – | – | – | – | 1000 to 10000 nM | < 100 nM | – | –
Cc1cn2cc(NC(=O)c3ccc(N4CCC(NC5CC5)C4)c4c3OCO4)cc(F)c2n1 (stereo not drawn) [Compound 649, 7-[3-(cyclopropylamino)-pyrrolidin-1-yl]-N-(8-fluoro-2-methyl-imidazo[1,2-a]pyridin-6-yl)-1,3-benzodioxole-4-carboxamide] | – | – | – | 1000 to 10000 nM | – | > 10000 nM | > 10000 nM | 1000 to 10000 nM | 1000 to 10000 nM | – | – | > 10000 nM | 100 to 1000 nM
CCNC1CCN(c2ccc(C(=O)Nc3cc(CCc4nnc[nH]4)c4nn(C)cc4c3)c3nn(C)cc23)CC1 [Compound 878] | – | – | – | > 10000 nM | – | > 10000 nM | > 10000 nM | > 10000 nM | > 10000 nM | – | – | > 10000 nM | > 10000 nM
CCNC1CCN(c2ccc(C(=O)Nc3cc(CCC(N)=O)c4nn(C)cc4c3)c3nn(C)cc23)CC1 [Compound 875] | – | – | – | > 10000 nM | – | > 10000 nM | > 10000 nM | > 10000 nM | > 10000 nM | – | – | > 10000 nM | > 10000 nM
CCNC1C(C)CN(c2ccc(C(=O)Nc3cc4cn(C)nc4cc3OC)c3nn(C)cc23)CC1C (stereo not drawn) [Compound 687] | – | – | – | > 10000 nM | – | > 10000 nM | > 10000 nM | 1000 to 10000 nM | 1000 to 10000 nM | – | – | > 10000 nM | 1000 to 10000 nM
CNCC1CCN(c2ccc(C(=O)Nc3cn4cc(C)nc(C)c4n3)c3nn(C)cc23)C1 (stereo not drawn) [Compound 527] | 100 to 1000 nM | 100 to 1000 nM | 100 to 1000 nM | 100 to 1000 nM | 100 to 1000 nM | – | – | – | – | 100 to 1000 nM | 100 to 1000 nM | – | –
CCNCC1CCN(c2cc(F)c(C(=O)Nc3cc4cn(C)nc4cc3OC)c3nn(C)cc23)C1 (stereo not drawn) [Compound 464, 4-(3-[(ethylamino)methyl]pyrrolidin-1-yl)-6-fluoro-N-(6-methoxy-2-methylindazol-5-yl)-2-methylindazole-7-carboxamide] | 100 to 1000 nM | 100 to 1000 nM | 100 to 1000 nM | 100 to 1000 nM | 100 to 1000 nM | – | – | – | – | 100 to 1000 nM | 100 to 1000 nM | – | –
COc1cc2nn(C)cc2cc1NC(=O)c1c(F)cc(N2[C@@H]3CC[C@H]2C[C@@H](NC2CC2)C3)c2cn(C)nc12 [Compound 428, 4-[(1R,5S)-3-(cyclo-propyl-amino)-8-azabicyclo [3.2.1]octan-8-yl]-6-fluoro-N-(6-methoxy-2-methyl-indazol-5-yl)-2-methyl-indazole-7-carboxamide] | > 10000 nM | > 10000 nM | 1000 to 10000 nM | 1000 to 10000 nM | 1000 to 10000 nM | – | – | – | – | > 10000 nM | 1000 to 10000 nM | – | –
CCNC1CCN(c2ccc(C(=O)Nc3cc(Cc4ccccc4)c4nc(C)cn4c3)c3nn(C)cc23)CC1 [Compound 338, N-(8-benzyl-2-methylimidazo-[1,2-a]pyridin-6-yl)-4-[4-(ethylamino)-1-piperidyl]-2-methyl-indazole-7-carboxamide] | 1000 to 10000 nM | 1000 to 10000 nM | < 100 nM | 100 to 1000 nM | < 100 nM | – | – | – | – | 1000 to 10000 nM | < 100 nM | – | –

Second part, led by results:

IC50 [1, 7] | IC50 [2, 8] | IC50 [3, 8] | GI50 [4] | IC50 [5, 10] | IC50 [1, 12] | IC50 [2, 13] | IC50 [3, 13] | IC50 [5, 15] | SMILES | AC50 [1, 6] | AC50 [5, 9] | AC50 [1, 11] | AC50 [5, 14]
– | – | – | 100 to 1000 nM | – | > 10000 nM | > 10000 nM | > 10000 nM | > 10000 nM | Cc1cn2nc(NC(=O)c3ccc(N4CCC(NC5CC5)CC4)c4cn(C)nc34)cc(CN)c2n1 [Compound 870] | – | – | > 10000 nM | > 10000 nM
> 10000 nM | > 10000 nM | > 10000 nM | 1000 to 10000 nM | > 10000 nM | – | – | – | – | COCCNc1cc(N2CCC(NC3CC3)CC2)c2cn(C)nc2c1C(=O)Nc1cc2cn(C)nc2cc1OC [Compound 442, 4-[4-(cyclopropylamino)-1-piperidyl]-6-(2-methoxyethylamino)-N-(6-methoxy-2-methyl-indazol-5-yl)-2-methyl-indazole-7-carboxamide] | > 10000 nM | > 10000 nM | – | –
100 to 1000 nM | 100 to 1000 nM | < 100 nM | 1000 to 10000 nM | < 100 nM | – | – | – | – | COc1cc2nn(C)cc2cc1NC(=O)c1ccc(N2CCC3(CCCN3)CC2)c2cn(C)nc12 [Compound 541] | 100 to 1000 nM | < 100 nM | – | –
1000 to 10000 nM | 1000 to 10000 nM | 1000 to 10000 nM | 1000 to 10000 nM | 1000 to 10000 nM | – | – | – | – | C=CCNC1CCN(c2ccc(C(=O)Nc3cn4cc(C)nc(C)c4c3OC)c3nn(C)cc23)CC1 [Compound 458, 4-[4-(allylamino)-1-piperidyl]-N-(8-methoxy-1,3-dimethyl-pyrrolo[1,2-a]pyrazin-7-yl)-2-methyl-indazole-7-carboxamide] | 1000 to 10000 nM | 1000 to 10000 nM | – | –
100 to 1000 nM | 100 to 1000 nM | < 100 nM | 1000 to 10000 nM | < 100 nM | – | – | – | – | COc1cc2nn(C)cc2cc1NC(=O)c1cnc(N2CCC(NC3CC3)CC2)c2cn(C)nc12 [Compound 434, 4-[4-(cyclopropylamino)-1-piperidyl]-N-(6-methoxy-2-methyl-indazol-5-yl)-2-methyl-pyrazolo[4,3-c]pyridine-7-carboxamide] | 100 to 1000 nM | < 100 nM | – | –
100 to 1000 nM | 100 to 1000 nM | < 100 nM | 100 to 1000 nM | < 100 nM | – | – | – | – | CCOc1cc2nn(C)cc2cc1NC(=O)c1c(F)cc(N2CCC(NC3CC3)CC2)c2cn(C)nc12 [Compound 415, 4-[4-(cyclopropyl-amino)-1-piperidyl]-N-(6-ethoxy-2-methylindazol-5-yl)-6-fluoro-2-methylindazole-7-carboxamide] | 100 to 1000 nM | < 100 nM | – | –
– | – | – | 1000 to 10000 nM | – | > 10000 nM | > 10000 nM | 100 to 1000 nM | 100 to 1000 nM | COC(=O)NCc1cc(NC(=O)c2ccc(N3CCC(NC4CC4)CC3)c3cn(C)nc23)cc2cn(C)nc12 [Compound 814] | – | – | > 10000 nM | 1000 to 10000 nM
100 to 1000 nM | 100 to 1000 nM | < 100 nM | < 100 nM | < 100 nM | – | – | – | – | COc1cc2nn(C)cc2cc1NC(=O)c1c(F)cc(N2CCC(NC3CC3)CC2)c2cn(C)nc12 [Compound 396, 4-[4-(cyclopropylamino)-1-piperidyl]-6-fluoro-N-(6-methoxy-2-methyl-indazol-5-yl)-2-methyl-indazole-7-carboxamide] | 100 to 1000 nM | < 100 nM | – | –
1000 to 10000 nM | 1000 to 10000 nM | 1000 to 10000 nM | 1000 to 10000 nM | 1000 to 10000 nM | – | – | – | – | COc1cc2nn(C)cc2cc1C#Cc1c(F)cc(N2CCC(NC3CC3)CC2)c2cn(C)nc12 [Compound 446, N-cyclo-propyl-1-[6-fluoro-7-[2-(6-methoxy-2-methyl-indazol-5-yl)-ethynyl]-2-methyl-indazol-4-yl]-piperidin-4-amine] | > 10000 nM | > 10000 nM | – | –
1000 to 10000 nM | 1000 to 10000 nM | 100 to 1000 nM | 1000 to 10000 nM | 100 to 1000 nM | – | – | – | – | COc1nc2nn(C)cc2cc1NC(=O)c1ccc(N2CCC(NC3CC3)CC2)c2cn(C)nc12 [Compound 460, 4-[4-(cyclopropylamino)-1-piperidyl]-N-(6-methoxy-2-methyl-pyrazolo[3,4-b]-pyridin-5-yl)-2-methyl-indazole-7-carboxamide] | 1000 to 10000 nM | 100 to 1000 nM | – | –

From patent US20260285853A1, “COMPOUNDS AND METHODS FOR MODULATING SPLICING” (REMIX THERAPEUTICS INC., priority 2023, published 2026)
